Assay results reported in US7842678B2, “Compositions comprising oligosaccharides” (priority 2003, dated 2010).

How the values were obtained:
[1] = test system: VTEC NCTC 12900 adhesion to HT29 cells; experiment: Adhesion assay of VTEC to HT29 cells, cultures subcultured on three successive days (Example 2); format: cell-based, E. coli; settings: for Inhibition of adhesion of VTEC to HT29 cells (FIG. 2): VTEC subcultured on three successive days; for Inhibition of adhesion of VTEC to HT29 cells (FIG. 1): 2.5 mg ml, plate counting, relative to oligosaccharide-free control
Description: VTEC NCTC 12900 was inoculated from frozen stocks into Dulbecco's modified eagle medium (DMEM) with added non-essential amino acids (1% v/v) and foetal bovine serum (5% v/v). The culture was incubated anaerobically at 37° C. for 18 h. A 20 μl aliquot was transferred into 2 ml of fresh DMEM, and incubated under the same conditions for 24 h. This was repeated twice more, so that the organism was subcultured on three successive days. An adhesion assay was then carried out as described previously, using 2.5 mg ml methyl-α-D-mannopyrannoside and D-mannose, and the adhered bacteria were enumerated by using plate counting.
Alpha 1,2 mannobiose and alpha 1,6 mannobiose were assayed for anti-adhesive activity using the method described hereinabove, with the modification that the VTEC cultures were subcultured on three successive days as described above.
Further oligosaccharides (pectic oligosaccharides, isomalto-oligosaccharides, GOS, partially hydrolyzed guar gum, xylo oligosaccharides and lactulose) have been tested for anti-adhesive activity against E. coli, both VTEC and EPEC pathovars. Methods were as described previously but with three subcultures included in the culture preparation stage, as described above. Compounds tested included GOS and pectic oligosaccharides that had been further purified by ultrafiltration to remove nitrates.

[2] = test system: EPEC adhesion to HT29 cells; experiment: Adhesion assay of EPEC to HT29 cell monolayers (Example 1); format: cell-based, E. coli; settings: oligosaccharide concentration 0.25%; initial inoculum 7.0 log cfu ml^−1; buffer only 5.3; 2 h at 37° C.
Description: (§1) HT29 cells were grown to 95-100% confluence in 12-well tissue culture plates. Bacterial cultures were grown in tissue culture medium, anaerobically at 37° C. These incubation conditions promoted expression of adhesions by the bacteria. The bacteria (in buffer, with or without the test oligosaccharide) were added to the cell monolayers and incubated for 2 h at 37° C. aerobically under 5% CO2. After incubation, the cell layers were washed three times in buffer and the adherent bacteria quantified. Assays were performed in triplicate
(§2) The tested oligosaccharides were methyl-α-mannopyrannoside and CGMP.
(§3) After the adhesion and washing stages, the cells were suspended and vigorously mixed to break up clumps. The resulting suspension was then plated onto non-selective agar media appropriate for the test organism.
(§4) The Initial inoculum was 7.3 log cfu ml^−1 (VTEC) and 7.0 log cfu ml^−1 (EPEC).

[3] = test system: VTEC adhesion to HT29 cells; experiment: Adhesion assay of VTEC to HT29 cell monolayers (Example 1); format: cell-based, E. coli
Description: as §1, §2, §3, §4

[4] = test system: E. coli EPEC (O119:H4) adhesion to HT29 cells; experiment: Adhesion assay of carbohydrates against E. coli EPEC on HT29 monolayers (Example 3); format: cell-based; settings: carbohydrate solution 5 mg/ml in PBS mixed 1:1 with bacterial suspension; 2 hours at 37° C. aerobically; relative to carbohydrate-free control
Description: The saccharides were tested against one strain of E. coli VTEC (0157:1H7 strain NCTC 12900) and one strain of E. coli EPEC (O119:H4).
E. coli broth cultures for adhesion assays were grown in DMEM supplemented with 5% v/v FBS and 1% non-essential amino acid solution (SDMEM). For each strain, a broth was inoculated from a slope culture and incubated anaerobically at 37° C. for 18-24 h. The overnight culture was then inoculated (1% v/v) into fresh SDMEM and incubated for a further 18-24 h under the same conditions. This was repeated once more. On the day of the assay, a 10% v/v inoculum was placed into pre-warmed SDMEM and incubated for 4 h anaerobically at 37° C.
A culture of the test strain was prepared as described above, then diluted 1:500 in PBS. The viable count of the diluted suspension was determined by spread plating onto PCA, with decimal dilutions carried out in MRD as necessary. The carbohydrates to be tested were dissolved in PBS (5 mg/ml) and sterilised by passing through a 0.2 μm syringe filter. […] A 1 ml aliquot of PBS was then pipetted into each well, and pipette mixed until the monolayer was completely dislodged and clumps broken up (as determined visually). […]
Data processing: Viable counts were calculated for all wells and the inoculum, and expressed as colony forming units per ml (cfu/ml). For each test, the mean and standard error of the triplicate wells were calculated. […]

Molecule | Inhibition of adhesion of VTEC to HT29 cells (FIG. 2) [1] | Inhibition of adhesion of VTEC to HT29 cells (FIG. 1) [1] | further results
OC[C@H]1O[C@H](O[C@@H]2C(O)O[C@H](CO)[C@@H](O)[C@@H]2O)[C@@H](O)[C@@H](O)[C@@H]1O (stereo partly drawn) [Alpha 1,2 mannobiose] | Inhibition of adhesion was detected | – | –
OC[C@H]1O[C@H](OC[C@H]2O[C@H](O)[C@@H](O)[C@@H](O)[C@@H]2O)[C@@H](O)[C@@H](O)[C@@H]1O [alpha 1,6 mannobiose] | Inhibition of adhesion was detected | – | –
O=C[C@@H](O)[C@@H](O)[C@H](O)[C@H](O)CO [D-mannose] | – | good inhibition of adhesion | –
CO[C@H]1O[C@H](CO)[C@@H](O)[C@H](O)[C@@H]1O [methyl-α-mannopyranoside, Methyl-α-D-mannopyranoside] | Inhibition of adhesion | good inhibition of adhesion | Viable count of adhered EPEC [2]: 5.1 log cfu ml^−1; Reduction in adhesion (in words) ([3]; oligosaccharide 0.25%, pathovar not given): reduction in adhesion; Viable count of adhered VTEC ([3]; oligosaccharide concentration 0.25%, initial inoculum 7.3 log cfu ml^−1, buffer only 6.3, 2 h at 37° C.): 4.8 log cfu ml^−1
β-1,3-glucan [curdlan] | – | – | Anti-adhesive activity against enteropathogenic E. coli EPEC (FIG. 5) [4]: positive
